Reference: patent US20130123287A1, “CONTROL AGENT FOR SOFT ROT AND CONTROL METHOD FOR THE SAME” (ISHIHARA SANGYO KAISHA, LTD., priority 2010, published 2013)

What was measured:
[1] = system: bacteria causing the soft rot (Erwinia carotovora); assay: Inhibition test of growth of bacteria causing soft rot, Reference Test Example 6; type: cell-based; details: for formed colonies (growth state), grade: PSA medium, 27 degrees Celsius, 3 days; for inhibition of growth of Erwinia carotovora (in words): active ingredient concentration of 1,000 ppm
Description: (§1) An inhibition test of the growth of bacteria causing the soft rot was done, when a control agent was directly applied to the bacteria causing the soft rot. A given volume of each pesticide of fludioxonil (Seibia FL [trade name] manufactured by Syngenta Japan K.K.), iminoctadine albesilate salt (Bellkute WP [trade name], manufactured by Nippon Soda Co., Ltd.), iprodione (Rovral WP [trade name] manufactured by Bayer Crop Science Co., Ltd.), and streptomycin (Mycin Wettable powder [trade name] manufactured by Hokko Chemical Industry Co., Ltd.) was added together with a suspension of the bacteria causing the soft rot (Erwinia carotovora) to a preliminarily dissolved PSA culture medium (55 degrees Celsius) for subsequent thorough agitation, which was then spread on a plate for culturing at 27 degrees Celsius for 3 days, to examine the growth state. Subsequently, the formed colonies were examined according to the following three grades. • +: at the same level as the level of non-treated lot.
(§2) Plus or minus: apparently less than the colonies of the non-treated lot. • −: almost no colonies observed.

[2] = system: soft rot of Chinese cabbage; assay: Test for controlling soft rot of Chinese cabbage, Example 4 / Comparative Example 4 (field, cultivar Ouraku 60); type: in vivo; details: 150 L/10 a sprayed onto planting holes before planting, 49 days after start
Description: Frequency of the disease=[sigma(number of plants with the onset of the disease at each severity level*index of the onset of the disease)/(plants examined*4)]*100
Disease control value=[1-(frequency of the disease in the treated lot/frequency of the disease in the non-treated lot)]*100
• 0: No onset • 1: Onset in some of outer leaves (shippable) • 2: Onset in outer leaves and some of head leaves (by removing damaged parts, the resulting cabbage can be shipped as small cabbage but is ranked as grade B). • 3: Most of head leaves are inflicted with the onset of the disease or with severer damages (not shippable) • 4: Whole cabbage plant is inflicted with the onset of the disease and is dead.
442 g/lkresoxim-methyl (STROBY FLOWABLE [trade name], manufactured by BASF) was adjusted to 500 g ai/10a (0.5 g/m^2, 1131 ml Product/10a) as the amount of the active ingredient and to 150 L/10a as the volume of diluent water.
70% w/w thiophanate methyl (Topsin M WF [trade name], manufactured by Nippon Soda Co., Ltd.) was adjusted to 1000 g ai/10a (1 g/m^2, 1429 g Product/10a) as the amount of the active ingredient and to 150 L/10a as the volume of diluent water.
50% w/w boscalid (Cantus DF [trade name], manufactured by BASF) was adjusted to 500 g ai/10a (0.5 g/m^2; 1000 g Product/10a) as the amount of the active ingredient and to 150 L/10a as the volume of diluent water.
50% w/w procymidone (Sumilex WP [trade name], manufactured by Sumitomo Chemical Agro) was adjusted to 500 g ai/10a (0.5 g/m^2, 1000 g Product/10a) as the amount of the active ingredient and to 150 L/10a as the volume of diluent water.
400 g/l iprodione (Rovral 500 Aqua [trade name], manufactured by Bayer Crop Science Co., Ltd.) was adjusted to 500 g ai/10a (0.5 g/m^2, […] Product/10a) as the amount of the active ingredient and to 150 L/10a as the volume of diluent water.
200 g/l fludioxonil (Seibia FLOWABLE [trade name], manufactured by Syngenta Japan K.K.) was adjusted to 500 g ai/10a (0.5 g/m^2, 2500 ml Product/10a) as the amount of the active ingredient and to 150 L/10a as the volume of diluent water.
400 g/l mepanipyrim (Flupika PLOWABLE [trade name], manufactured by Nippon Soda Co., Ltd.) was adjusted to 500 g ai/10a (0.5 g/m^2, 1250 ml Product/10a) as the amount of the active ingredient and to 150 L/10a as the volume of diluent water.
After spreading an agricultural mulch-sheet and opening planting holes (diameter of about 5 cm) for permanent planting through the mulch-sheet, the spray solutions prepared as described above were sprayed onto the planting holes such that the amount of treated active ingredient of each spray solution was 0.5 g/m^2 (150 L per 10a), followed by air-drying; subsequently, seedlings of Chinese cabbage (cultivar: Ouraku 60) grown for 4 weeks in cell mold trays (128 holes/nursery box) were planted such that 30 seedlings were planted in each test lot having an area of 2.5 m^2 with two replications.
Preparation was performed by diluting a chemical solution (Agrimycin WP100 [trade name] manufactured by Pfizer) containing oxytetracycline at 1.5% and streptomycin sulfate salt at 18.8% with water to 1/1500.
In a field spread with the agricultural mulch-sheet, Chinese cabbage seedlings (cultivar: Ouraku 60) grown by the same method as in Example 4 were planted by the same method as in Example 4, for spraying the spray solution prepared above in (1) (at each spray volume of 300 L/10a) twice (28 days and 42 days after the planting of the seedlings) on the stems and leaves.
49 days after the start of the tests, all the plants in each lot were examined about the severity level of the disease to assess the frequency of the disease and the disease control value. Herein, the frequency of the disease and the disease control value were determined in the same manner as described above. Because soft rot is a disease with damages hardly controlled, herein, even a chemical at the level C determined by the tests of the effects can practically be used.

[3] = system: bacteria causing the soft rot (Erwinia carotovora); assay: Inhibition test of growth of bacteria causing soft rot, Reference Test Example 4; type: cell-based; details: for formed colonies (growth state), grade: PSA medium, 27 degrees Celsius, 2 days; for inhibition of growth of Erwinia carotovora (in words): active ingredient concentration of 1,000 ppm
Description: An inhibition test of the growth of bacteria causing the soft rot was done, when a control agent was directly applied to the bacteria causing the soft rot. A given volume of each pesticide of kresoxim-methyl (STROBY DF [trade name] manufactured by BASF), thiophanate methyl (Topsin M WP [trade name], manufactured by Nippon Soda Co., Ltd), boscalid (Cantus DF [trade name] manufactured by BASF), procymidone (Sumilex WP [trade name] manufactured by Sumitomo Chemical Agro Co., Ltd.) and streptomycin (Mycin Wettable powder [trade name] manufactured by Hokko Chemical Industry Co., Ltd.) was added together with a suspension of the bacteria causing the soft rot (Erwinia carotovora) to a preliminarily dissolved PSA culture medium (55 degrees Celsius) for subsequent thorough agitation, which was then spread on a plate for culturing at 27 degrees Celsius for 2 days, to examine the growth state. Subsequently, the formed colonies were examined according to the following three grades. • +: at the same level as the level of non-treated lot. Plus or minus: apparently less than the colonies of the non-treated lot. • −: almost no colonies observed.

[4] = system: bacteria causing the soft rot (Erwinia carotovora); assay: Inhibition test of growth of bacteria causing soft rot, Reference Test Example 5; type: cell-based; details: for formed colonies (growth state), grade: PSA medium, 27 degrees Celsius, 2 days
Protocol: as §1, with “mepanipyrim (Flupika” for “fludioxonil (Seibia”, “by” for “by Syngenta Japan K.K.), iminoctadine albesilate salt (Bellkute WP [trade name], manufactured by”, “Ltd.)” for “Ltd.), iprodione (Rovral WP [trade name] manufactured by Bayer Crop Science Co., Ltd.),”, “2” for “3”
as §2

## CC(C)NC(=O)N1CC(=O)N(c2cc(Cl)cc(Cl)c2)C1=O [Iprodione, 3-(3,5-dichlorophenyl)-N-isopropyl-2,4-dioxoimidazolizine-1-carboxamide]
[1]; 100 ppm active ingredient
  formed colonies (growth state), grade: +, +
[1]; 500 ppm active ingredient
  formed colonies (growth state), grade: +, +
[1]; 1000 ppm active ingredient
  formed colonies (growth state), grade: +, +
[1]
  inhibition of growth of Erwinia carotovora (in words): never inhibited the growth
[2]; 500 g ai/10 a
  Determination of effect: B (B: Effective (41 to 60 disease control value))

## O=C(Nc1ccccc1-c1ccc(Cl)cc1)c1cccnc1Cl [Boscalid, 2-chloro-N-(4′-chlorobiphenyl-2-yl)nicotinamide]
[2]; 500 g ai/10 a
  Determination of effect: C (C: Effective at low level (21 to 40 disease control value))
[3]; 100 ppm active ingredient
  formed colonies (growth state), grade: +, +
[3]; 500 ppm active ingredient
  formed colonies (growth state), grade: +, +
[3]; 1000 ppm active ingredient
  formed colonies (growth state), grade: +, +
[3]
  inhibition of growth of Erwinia carotovora (in words): never inhibited the growth

## CC12CC1(C)C(=O)N(c1cc(Cl)cc(Cl)c1)C2=O (stereo not drawn) [Procymidone, N-(3,5-dichlorophenyl)-1,2-dimethylcyclopropane-1,2-dicarboximide]
[2]; 500 g ai/10 a
  Determination of effect: A (A: Highly effective (61 or larger disease control value))
[3]; 100 ppm active ingredient
  formed colonies (growth state), grade: +, +
[3]; 500 ppm active ingredient
  formed colonies (growth state), grade: +, +
[3]; 1000 ppm active ingredient
  formed colonies (growth state), grade: +, +
[3]
  inhibition of growth of Erwinia carotovora (in words): never inhibited the growth

## CC#Cc1cc(C)nc(Nc2ccccc2)n1 [Mepanipyrim, N-(4-methyl-6-prop-1-ynylpyrimidin-2-yl)aniline]
[4]; 100 ppm active ingredient
  formed colonies (growth state), grade: +, +
[4]; 500 ppm active ingredient
  formed colonies (growth state), grade: +, +
[4]; 1000 ppm active ingredient
  formed colonies (growth state), grade: +, +
[4]; active ingredient concentration of 1,000 ppm
  inhibition of growth of Erwinia carotovora (in words): never inhibited the growth
[2]; 500 g ai/10 a
  Determination of effect: B (B: Effective (41 to 60 disease control value))

## N#Cc1c[nH]cc1-c1cccc2c1OC(F)(F)O2 [Fludioxonil, 4-(2,2-difluoro-1,3-benzodioxol-4-yl)pyrrole-3-carbonitrile]
[1]; 100 ppm active ingredient
  formed colonies (growth state), grade: +, +
[1]; 500 ppm active ingredient
  formed colonies (growth state), grade: +, +
[1]; 1000 ppm active ingredient
  formed colonies (growth state), grade: +, +
[1]
  inhibition of growth of Erwinia carotovora (in words): never inhibited the growth
[2]; 500 g ai/10 a
  Determination of effect: C (C: Effective at low level (21 to 40 disease control value))

## COC(=O)NC(=S)Nc1ccccc1NC(=S)NC(=O)OC [Thiophanate methyl, dimethyl=4,4′-(o-phenylene)bis(3-thioallophanate)]
[2]; 1000 g ai/10 a
  Determination of effect: B (B: Effective (41 to 60 disease control value))
[3]; 100 ppm active ingredient
  formed colonies (growth state), grade: +, +
[3]; 500 ppm active ingredient
  formed colonies (growth state), grade: +, +
[3]; 1000 ppm active ingredient
  formed colonies (growth state), grade: +, +
[3]
  inhibition of growth of Erwinia carotovora (in words): never inhibited the growth
